Results taken from patent US8927715B2, “Inhibitors of 11β-hydroxysteroid dehydrogenase type 1” (Vitae Pharmaceuticals, Inc., priority 2006, dated 2015).

target: human 11β-HSD1 (Homo sapiens, UniProt P28845); experiment: Inhibition of a microsomal preparation of 11β-HSD1, SPA (Biological Test Example 2); assay type: biochemical; parameters: expressed in transfected cells; host or cells: CHO cells (microsomes); details: read-out: Biological Test Example 2 (IC50 class)
Procedure: All reactions are carried out at room temperature in 96 well clear flexible PET Microbeta plates (PerkinElmer). […] After a 10 minute pre-incubation, 50 μL of enzyme solution containing microsomes isolated from CHO cells overexpressing human 11β-HSD1 (10-20 μg/ml of total protein) is added, and the plates are then incubated for 90 minutes at room temperature. The reaction is stopped by adding 50 μl of the SPA beads suspension containing […] 18β-glycyrrhetinic acid, 5 mg/ml protein A coated YSi SPA beads (GE Healthcare) and 3.3 μg/ml of anti-cortisol antibody (East Coast Biologics) in Superblock buffer (Bio-Rad). The plates are then shaken for 120 minutes at room temperature, and the SPA signal corresponding to [^3H]cortisol is measured on a Microbeta plate reader.

Chain of human 11β-HSD1 (P28845 whole entry): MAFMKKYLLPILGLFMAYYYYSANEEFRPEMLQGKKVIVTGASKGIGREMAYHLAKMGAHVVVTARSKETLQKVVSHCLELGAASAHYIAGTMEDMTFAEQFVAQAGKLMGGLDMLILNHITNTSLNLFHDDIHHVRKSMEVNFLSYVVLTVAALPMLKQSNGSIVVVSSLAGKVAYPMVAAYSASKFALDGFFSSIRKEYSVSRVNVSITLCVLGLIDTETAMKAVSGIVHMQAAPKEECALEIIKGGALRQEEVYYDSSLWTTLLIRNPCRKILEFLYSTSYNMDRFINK

How did the IC50 turn out when CC(C)(CO)C1CC2(CCN(C(=O)NC3C4CC5CC(C4)CC3C5)CC2)c2c(Br)cccc21 (racemic) [Example 123, (±)-7-Bromo-N-(2-adamantyl)-3-(1-hydroxy-2-methylpropan-2-yl)-2,3-dihydrospiro[indene-1,4′-piperidine]-1′-carboxamide] was run?
The IC50 was < 50 nM.

NCC1CC2(CCN(C(=O)OC3C4CC5CC(C4)CC3C5)CC2)c2c(Br)cccc21 (racemic) [Example 124, (±)-2-Adamantyl 3-(aminomethyl)-7-bromo-2,3-dihydrospiro[indene-1,4′-piperidine]-1′-carboxylate] was tested. Which IC50 did it give?
The IC50 was < 50 nM.

How did the IC50 turn out when CN(C)CC1CC2(CCN(C(=O)OC3C4CC5CC(C4)CC3C5)CC2)c2c(Br)cccc21 (racemic) [Example 125, (±)-2-Adamantyl 7-bromo-3-((dimethylamino)methyl)-2,3-dihydro spiro[indene-1,4′-piperidine]-1′-carboxylate] was run?
The IC50 was < 50 nM.

How did the IC50 turn out when O=C(NC1C2CC3CC(C2)CC1C3)N1CCC2(CC1)CC(CCN1CCOCC1)c1cccc(Br)c12 (racemic) [Example 126, (±)-7-Bromo-N-(2-adamantyl)-3-(2-morpholinoethyl)-2,3-dihydrospiro[indene-1,4′-piperidine]-1′-carboxamide] was run?
Its IC50 is < 50 nM.

How did the IC50 turn out when NC(=O)CC1CC2(CCN(C(=O)NC3C4CC5CC(C4)CC3C5)CC2)c2c(Br)cccc21 (racemic) [Example 131, (±)-3-(2-amino-2-oxoethyl)-7-bromo-N-(2-adamantyl)-2,3-dihydrospiro[indene-1,4′-piperidine]-1′-carboxamide] was run?
Its IC50 is < 50 nM.

Which IC50 does the source give for O=C(NC1C2CC3CC(C2)CC1C3)N1CCCC2(Cc3ccccc3C2=O)C1 (centres unmarked) [27, Step 1 Product] here?
The IC50 was < 50 nM.

Which IC50 does the source give for O=C(NC1C2CC3CC(C2)CC1C3)N1CCCC2(Cc3ccccc3C2O)C1 (centres unmarked) [27, Step 2 Product] here?
The IC50 was < 50 nM.

For O=C(NC1C2CC3CC(C2)CC1C3)N1CCC2(CC1)NC(=S)c1ccccc12 (centres unmarked) [87, Step 1 Product], which IC50 is on record?
The IC50 was < 50 nM.

Which IC50 does the source give for CN1C(=S)c2ccccc2C12CCN(C(=O)NC1C3CC4CC(C3)CC1C4)CC2 (centres unmarked) [103, Step 1 Product] here?
The IC50 was < 50 nM.

Which IC50 does the source give for O=C(NC1C2CC3CC(C2)CC1C3)N1CCC2(CCc3ccccc32)CC1 (centres unmarked) [Example 28, N-(2-Adamantyl)-2,3-dihydrospiro[indene-1,4′-piperidine]-1′-carboxamide] here?
Its IC50 is < 50 nM.

How did the IC50 turn out when CCOC(=O)CCN1Cc2ccccc2C2(CCN(C(=O)OC3C4CC5CC(C4)CC3C5)CC2)C1 (centres unmarked) [Example 32] was run?
The IC50 was < 50 nM.

For CS(=O)(=O)N1Cc2ccccc2C2(CCN(C(=O)NC3C4CC5CC(C4)CC3C5)CC2)C1 (centres unmarked) [Example 34, N-(2-Adamantyl)-2-(methylsulfonyl)-2,3-dihydro-1H-spiro[isoquinoline-4,4′-piperidine]-1′-carboxamide], which IC50 is on record?
The IC50 was < 50 nM.

For CNC(=O)N1Cc2ccccc2C2(CCN(C(=O)NC3C4CC5CC(C4)CC3C5)CC2)C1 (centres unmarked) [Example 35, N1′-(2-Adamantyl)-N2-methyl-1H-spiro[isoquinoline-4,4′-piperidine]-1′,2(3H)-dicarboxamide], which IC50 is on record?
Its IC50 is < 50 nM.

How did the IC50 turn out when CCOC(=O)N1Cc2ccccc2C2(CCN(C(=O)NC3C4CC5CC(C4)CC3C5)CC2)C1 (centres unmarked) [Example 36, Ethyl 1′-((2-adamantyl)carbamoyl)-1H-spiro[isoquinoline-4,4′-piperidine]-2(3H)-carboxylate] was run?
Its IC50 is < 50 nM.

With CC(C)(C)OC(=O)N1Cc2ccccc2C2(CCN(C(=O)OC3C4CC5CC(C4)CC3C5)CC2)C1 (centres unmarked) [Example 37, 2-Tert-butyl 1′-(2-adamantyl) 1H-spiro[isoquinoline-4,4′-piperidine]-1′,2(3H)-dicarboxylate] as the compound, how does the IC50 read?
The IC50 was < 50 nM.

O=C(OC1C2CC3CC(C2)CC1C3)N1CCC2(CC1)CNCc1ccccc12 (centres unmarked) [Example 38, 2-Adamantyl 2,3-dihydro-1H-spiro[isoquinoline-4,4′-piperidine]-1′-carboxylate] was tested. Which IC50 did it give?
Its IC50 is < 50 nM.

Which IC50 does the source give for CS(=O)(=O)N1Cc2ccccc2C2(CCN(C(=O)OC3C4CC5CC(C4)CC3C5)CC2)C1 (centres unmarked) [Example 39, 2-Adamantyl 2-(methylsulfonyl)-2,3-dihydro-1H-spiro[isoquinoline-4,4′-piperidine]-1′-carboxylate] here?
Its IC50 is < 50 nM.

How did the IC50 turn out when CC(C)S(=O)(=O)N1Cc2ccccc2C2(CCN(C(=O)OC3C4CC5CC(C4)CC3C5)CC2)C1 (centres unmarked) [Example 40, 2-Adamantyl 2-(isopropylsulfonyl)-2,3-dihydro-1H-spiro[isoquinoline-4,4′-piperidine]-1′-carboxylate] was run?
The IC50 was < 50 nM.

Which IC50 does the source give for N#Cc1ccc(N2Cc3ccccc3C3(CCN(C(=O)OC4C5CC6CC(C5)CC4C6)CC3)C2)nc1 (centres unmarked) [Example 41, 2-Adamantyl 2-(5-cyanopyridin-2-yl)-2,3-dihydro-1H-spiro[isoquinoline-4,4′-piperidine]-1′-carboxylate] here?
The IC50 was < 50 nM.

For CC(C(=O)O)C1CC2(CCN(C(=O)NC3C4CC5CC(C4)CC3C5)CC2)c2c(Br)cccc21 (centres unmarked) [Example 66, 2-(7-Bromo-1′-((2-adamantyl)carbamoyl)-2,3-dihydrospiro[indene-1,4′-piperidine]-3-yl)propanoic acid], which IC50 is on record?
Its IC50 is < 50 nM.

COc1cc(CNC(=O)C23CC4CC(C2)C(OC(=O)N2CCC5(CC2)CC(CC(=O)O)c2ccccc25)C(C4)C3)cc(OC)c1 (centres unmarked) [Example 72, 2-(1′-((1-(3,5-Dimethoxybenzylcarbamoyl)-4-adamantyloxy)carbonyl)-2,3-dihydrospiro[indene-1,4′-piperidine]-3-yl)acetic acid] was tested. Which IC50 did it give?
The IC50 was 50 to 1000 nM.

NC(=O)C12CC3CC(C1)C(OC(=O)N1CCC4(CC1)CC(CC(=O)O)c1ccccc14)C(C3)C2 (centres unmarked) [Example 73, 2-(1′-((1-Carbamoyl-4adamantyloxy)carbonyl)-2,3-dihydrospiro[indene-1,4′-piperidine]-3-yl)acetic acid] was tested. Which IC50 did it give?
Its IC50 is < 50 nM.

With O=C(O)CC1CC2(CCN(C(=O)NC3C4CC5CC3CC(F)(C5)C4)CC2)c2c(Br)cccc21 (centres unmarked) [Example 74] as the compound, how does the IC50 read?
The IC50 was < 50 nM.

For COc1ccc2c(c1)CCNC21CCN(C(=O)NC2C3CC4CC(C3)CC2C4)CC1 (centres unmarked) [Example 77, N-(2-Adamantyl)-6-methoxy-3,4-dihydro-2H-spiro[isoquinoline-1,4′-piperidine]-1′-carboxamide], which IC50 is on record?
Its IC50 is < 50 nM.

O=C(NC1C2CC3CC(C2)CC1C3)N1CCC2(CCCc3ccccc32)CC1 (centres unmarked) [Example 78, N-(2-Adamantyl)-3,4-dihydro-2H-spiro[naphthalene-1,4′-piperidine]-1′-carboxamide] was tested. Which IC50 did it give?
Its IC50 is < 50 nM.

For COC(=O)CC1CCC2(CC1)CCN(C(=O)OC1C3CC4CC(C3)CC1C4)CC2 (centres unmarked) [Example 79, (2-Adamantyl) 9-(2-methoxy-2-oxoethyl)-3-azaspiro[5.5]undecane-3-carboxylate], which IC50 is on record?
The IC50 was < 50 nM.

O=C(O)CC1CCC2(CC1)CCN(C(=O)OC1C3CC4CC(C3)CC1C4)CC2 (centres unmarked) [Example 80, 2-(3-((2-Adamantyl)oxycarbonyl)-3-azaspiro[5.5]undecan-9-yl)acetic acid] was tested. Which IC50 did it give?
Its IC50 is 50 to 1000 nM.

For COC(=O)CC1CCC2(CC1)CCN(C(=O)NC1C3CC4CC(C3)CC1C4)CC2 (centres unmarked) [Example 81, Methyl 2-(3-((2-adamantyl)carbamoyl)-3-azaspiro[5.5]undecan-9-yl)acetate], which IC50 is on record?
Its IC50 is < 50 nM.

O=C(O)CC1CCC2(CC1)CCN(C(=O)NC1C3CC4CC(C3)CC1C4)CC2 (centres unmarked) [Example 82, 2-(3-((2-Adamantyl)carbamoyl)-3-azaspiro[5.5]undecan-9-yl)acetic acid] was tested. Which IC50 did it give?
Its IC50 is 50 to 1000 nM.

How did the IC50 turn out when O=C(NC1C2CC3CC(C2)CC1C3)N1CCC2(CC1)OCc1ccccc12 (centres unmarked) [Example 83, N-(2-Adamantyl)-3H-spiro[isobenzofuran-1,4′-piperidine]-1′-carboxamide] was run?
The IC50 was < 50 nM.

For CC(C)(C)OC(=O)N1CC2(CCN(C(=O)OC3C4CC5CC3CC(C(N)=O)(C5)C4)CC2)c2ccccc21 (stereo not drawn) [Example 85, 1-Tert-butyl 1′-(trans-1-carbamoyl-4-adamantyl)spiro[indoline-3,4′-piperidine]-1,1′-dicarboxylate], which IC50 is on record?
Its IC50 is < 50 nM.

For CN1Cc2ccccc2C12CCN(C(=O)NC1C3CC4CC(C3)CC1C4)CC2 (centres unmarked) [Example 86, N-(2-Adamantyl)-2-methylspiro[isoindoline-1,4′-piperidine]-1′-carboxamide], which IC50 is on record?
Its IC50 is < 50 nM.

Which IC50 does the source give for O=C(NC1C2CC3CC(C2)CC1C3)N1CCC2(CC1)NCc1ccccc12 (centres unmarked) [Example 87, N-(2-Adamantyl)spiro[isoindoline-1,4′-piperidine]-1′-carboxamide] here?
The IC50 was < 50 nM.

CN1Cc2cccc(Cl)c2C12CCN(C(=O)NC1C3CC4CC(C3)CC1C4)CC2 (centres unmarked) [Example 88, 7-Chloro-N-(2-adamantyl)-2-methylspiro[isoindoline-1,4′-piperidine]-1′-carboxamide] was tested. Which IC50 did it give?
Its IC50 is < 50 nM.

With O=C(O)CC1CC2(CCN(C(=O)OC3C4CC5CC3CC(C(=O)NCc3ccccc3)(C5)C4)CC2)c2ccccc21 (centres unmarked) [Example 89, 2-(1′-((1-(Benzylcarbamoyl)-4-adamantyloxy)carbonyl)-2,3-dihydrospiro[indene-1,4′-piperidine]-3-yl)acetic acid] as the compound, how does the IC50 read?
Its IC50 is 50 to 1000 nM.

With O=C(O)CCC(=O)N1CC2(CCN(C(=O)NC3C4CC5CC(C4)CC3C5)CC2)c2ccccc21 (centres unmarked) [Example 90, 4-(1′-(2-Adamantylcarbamoyl)spiro[indoline-3,4′-piperidine]-1-yl)-4-oxobutanoic acid] as the compound, how does the IC50 read?
Its IC50 is < 50 nM.

For O=C(O)/C=C/C(=O)N1Cc2ccccc2C2(CCN(C(=O)NC3C4CC5CC(C4)CC3C5)CC2)C1 (centres unmarked) [Example 91, (E)-4-(1′-(2-Adamantylcarbamoyl)-1H-spiro[isoquinoline-4,4′-piperidine]-2(3H)-yl)-4-oxobut-2-enoic acid], which IC50 is on record?
Its IC50 is < 50 nM.

How did the IC50 turn out when O=C(O)CCC(=O)N1Cc2ccccc2C2(CCN(C(=O)NC3C4CC5CC(C4)CC3C5)CC2)C1 (centres unmarked) [Example 92, 4-(1′-(2-Adamantylcarbamoyl)-1H-spiro[isoquinoline-4,4′-piperidine]-2(3H)-yl)-4-oxobutanoic acid] was run?
Its IC50 is < 50 nM.
